# According to US20210102200A1, “SMALL MOLECULE TARGETED RECRUITMENT OF A NUCLEASE TO RNA” (The Scripps Research Institute, priority 2018, published 2021):
# Key:
# MDA-MB-231 cells = experiment: Caspase 3/7 activity in MDA-MB-231 cells; format: cell-based
# Experimental: Approximately 5,000 MDA-MB-231 cells were plated into white, cell-culture treated, 96-well plates (Corning). At ˜60% confluency, cells were treated with dilutions of LNA-210, Scr-LNA, TGP-210, or TGP-210-RL and then placed under hypoxic or normoxic conditions. After 48 h, caspase 3/7 activity was measured using a Caspase-Glo 3/7 kit (Promega) according to the manufacturer's protocol. Alternatively, MDA-MB-231 cells were transfected with a plasmid overexpressing pre-miR-210 (Genecopoeia; HmiR0167-MR04) using Lipofectamine 2000 (Invitrogen). After 5 h of transfection, cells were plated into white, cell-culture treated 96-well plates (Corning) and then treated as described above. Fold change in Caspase activity was calculated by normalizing treated samples to the untreated samples after subtracting background sample values.
# [1] = system: triple negative breast cancer; conditions: triple negative breast cancer mouse model; cited from earlier work
# pre-miR-210 mimic = experiment: Microscale thermophoresis binding, miR-210 Hairpin RNA; conditions: MST
# Experimental: MST fluorescent measurements were performed on a Monolith NT.115 system (NanoTemper Technologies) using the fluorescence of a 5′-Cy5 labeled miR-210 Hairpin RNA (5′—Cy5 […]) (SEQ ID NO: 11), a 5′-Cy5 miR-210 Mutant RNA (5′—Cy5 […]) (SEQ ID NO: 12), or a 5′ Cy5 DNA Hairpin (5′—Cy5 […]) (SEQ ID NO: 13) which were purchased from IDT with RNase-free HPLC purification and used without further purification. The RNA (5 nM) was prepared in 1×MST Buffer (8 mM Na2HPO4, 190 mM NaCl, 1 mM EDTA, and 0.05% (v/v) Tween-20) and folded by heating at 60° C. for 5 min, and slowly cooling to room temperature. Compounds (TGP-210 or TGP-210-RL) were diluted in 1×MST Buffer and then were added to a final concentration of 20 μM, followed by 1:2 dilutions in 1×MST Buffer containing 5 nM RNA. Alternatively, RNase L in 1×MST Buffer was added to a final concentration of 50 nM in addition to compound and RNA. […] Fluorescence measurements (Ex: 605-645 nm, Em: 680-685 nm) were performed at 20% LED and 80% MST power, with a Laser-On time of 30 s and Laser-Off time of 5 s. The data were analyzed by thermophoresis analysis and fitted by the quadratic binding equation in MST analysis software (NanoTemper Technologies). Dissociation constants were then determined by curve fitting using a single-site model.
# RNase L = target: T1, RNase L (Homo sapiens, UniProt Q05823); experiment: In vitro RNase L oligomerization, TGP-210-RL study; format: biochemical; conditions: in vitro cross-linking
# T1 construct: GST; made in house
# T1 sequence (Q05823 1-741): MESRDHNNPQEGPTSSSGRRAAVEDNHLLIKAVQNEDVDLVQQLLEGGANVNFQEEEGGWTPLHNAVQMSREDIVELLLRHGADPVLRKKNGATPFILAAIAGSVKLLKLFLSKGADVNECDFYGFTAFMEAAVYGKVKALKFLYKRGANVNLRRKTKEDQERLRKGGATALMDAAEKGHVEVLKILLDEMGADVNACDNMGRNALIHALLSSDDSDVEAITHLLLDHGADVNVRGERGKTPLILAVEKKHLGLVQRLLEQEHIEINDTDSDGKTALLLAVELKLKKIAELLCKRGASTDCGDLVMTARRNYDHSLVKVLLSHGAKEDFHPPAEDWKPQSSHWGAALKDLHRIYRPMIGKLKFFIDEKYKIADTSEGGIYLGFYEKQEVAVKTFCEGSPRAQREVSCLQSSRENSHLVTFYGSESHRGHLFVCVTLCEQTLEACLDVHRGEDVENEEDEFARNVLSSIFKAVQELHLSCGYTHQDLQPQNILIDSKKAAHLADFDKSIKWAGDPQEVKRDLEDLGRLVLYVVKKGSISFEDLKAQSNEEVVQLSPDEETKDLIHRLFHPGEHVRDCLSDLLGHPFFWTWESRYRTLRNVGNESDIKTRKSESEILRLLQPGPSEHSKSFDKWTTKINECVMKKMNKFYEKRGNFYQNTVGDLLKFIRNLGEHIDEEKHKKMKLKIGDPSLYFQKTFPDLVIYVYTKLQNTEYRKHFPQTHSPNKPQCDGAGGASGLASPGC
# Experimental: An aliquot of RNase L (3 μM) in 1×RNase L Buffer was supplemented with 10 mM MgCl2, fresh 7 mM β-mercaptoethanol, and 50 μM of ATP. Dilutions of 2′-5′ A4, TGP-210, or TGP-210-RL were prepared in 1×RNase L Buffer supplemented with 10 mM MgCl2, fresh 7 mM β-mercaptoethanol, and 50 μM of ATP and added to the solution of RNase L in a total volume of 17.4 μL. The RNase L/compound solutions were incubated at room temperature for 5 min and then 1 μL of 44 mM dimethyl suberimidate (Thomas Scientific) in 0.4 M triethanolamine hydrochloride, pH 8.5, was added. After incubating at room temperature for 2 h, 3.6 μL of 6×Laemmli buffer (375 mM Tris-HCl, pH 6.8, 0.03% bromophenol blue, 0.6% β-mercaptoethanol, 12% SDS, 60% glycerol) was added. After heat denaturing the samples at 95° C. for 5 min, the samples were diluted 1:90 in 1×Laemmli buffer and then resolved by SDS-PAGE. After transferring to a PVDF membrane, the membrane was blocked in 1×TBST [1×TBS with 0.1% Tween-20 (v/v)] containing 5% nonfat milk for 1 h. […] After washing the membrane five times for 5 min each with 1×TBST, protein levels were quantified by chemiluminescence with SuperSignal West Pico Chemiluminescent Substrate (Pierce Biotechnology) per the manufacturer's protocol. RNase L bands associated with monomeric or oligomeric signals were quantified using ImageJ software (National Institutes of Health).
substance,measurement,setting,value
Targapremir-210 [TGP-210],Apoptotic stimulation (caspase activity),"MDA-MB-231 cells; hypoxic MDA-MB-231 cells, 48 h, TGP-210-RL at 500 nM",similar
same,Apoptosis upon miR-210 overexpression,MDA-MB-231 cells; miR-210 overexpressed background,no longer stimulated apoptosis
same,Tumor growth,[1],inhibited tumor growth
same,Kd,pre-miR-210 mimic,160 nM
same,Oligomerization of RNase L,RNase L,not
